According to patent publication US10626112B2, “Heterocyclic sulfonamide derivative and medicine comprising same” (EA PHARMA CO., LTD., priority 2014, dated 2020):

Target: human TRPA1 (Homo sapiens (Human), UniProt O75762)
Assay: Measurement of TRPA1 antagonist activity (1): intracellular calcium increase
Type: cell-based
Conditions: 293T cells transfected with human TRPA1 expression plasmid; allylisothiocyanate 20 μM stimulation; intracellular calcium fluorescence; read-out: hTRPA1 IC50
How it was run: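 Calcium-flux readout of TRPA1 block: compound given 10 min before 20 μM (final) allylisothiocyanate, fluorescence tracked 5 min. Cells were 293T transiently expressing human TRPA1, dye-loaded 1 hr in HBSS, 20 mM HEPES, pH 7.2. Inhibition scaled between agonist-only and buffer-only responses; IC50 by sigmoid fitting.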

human TRPA1, sequence (O75762 whole entry): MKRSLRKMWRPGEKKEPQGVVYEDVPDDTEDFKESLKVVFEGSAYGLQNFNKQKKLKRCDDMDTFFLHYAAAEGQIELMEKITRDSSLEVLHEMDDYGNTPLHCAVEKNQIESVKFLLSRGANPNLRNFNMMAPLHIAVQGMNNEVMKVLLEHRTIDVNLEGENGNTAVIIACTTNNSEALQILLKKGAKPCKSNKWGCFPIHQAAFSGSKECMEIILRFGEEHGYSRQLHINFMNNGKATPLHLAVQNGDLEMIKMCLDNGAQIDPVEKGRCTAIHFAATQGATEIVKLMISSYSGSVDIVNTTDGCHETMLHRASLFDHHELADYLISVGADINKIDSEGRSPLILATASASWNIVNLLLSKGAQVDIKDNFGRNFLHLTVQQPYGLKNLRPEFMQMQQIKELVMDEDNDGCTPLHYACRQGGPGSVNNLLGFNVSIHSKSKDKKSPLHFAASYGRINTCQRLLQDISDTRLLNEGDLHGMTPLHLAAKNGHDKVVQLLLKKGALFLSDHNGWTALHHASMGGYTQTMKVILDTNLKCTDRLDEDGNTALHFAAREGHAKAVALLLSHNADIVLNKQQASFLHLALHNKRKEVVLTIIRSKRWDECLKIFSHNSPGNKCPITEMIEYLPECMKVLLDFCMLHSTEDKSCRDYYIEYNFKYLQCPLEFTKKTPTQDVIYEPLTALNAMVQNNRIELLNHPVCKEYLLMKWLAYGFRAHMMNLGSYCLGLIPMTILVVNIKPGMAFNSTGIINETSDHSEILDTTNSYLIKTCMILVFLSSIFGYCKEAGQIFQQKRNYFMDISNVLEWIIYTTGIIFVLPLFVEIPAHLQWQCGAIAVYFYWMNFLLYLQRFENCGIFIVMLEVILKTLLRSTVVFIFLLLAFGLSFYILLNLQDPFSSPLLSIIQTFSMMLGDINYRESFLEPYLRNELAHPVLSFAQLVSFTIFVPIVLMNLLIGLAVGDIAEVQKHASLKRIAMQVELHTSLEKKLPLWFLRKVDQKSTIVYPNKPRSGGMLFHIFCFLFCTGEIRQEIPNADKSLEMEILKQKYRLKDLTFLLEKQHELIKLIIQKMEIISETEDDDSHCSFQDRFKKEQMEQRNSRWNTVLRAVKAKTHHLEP

SMILES | IC50 [nM]
O=C(NCc1cnnc(-c2ccc(C(F)(F)F)nc2)c1)[C@@H]1CCCN1S(=O)(=O)c1cc2ccccc2o1 [Example 209, (2S)-1-(benzofuran-2-ylsulfonyl)-N-[[6-[6-(trifluoromethyl)-3-pyridyl]pyridazin-4-yl]methyl]pyrrolidine-2-carboxamide] | 110
O=C(NCc1cc(-c2ccc(C(F)(F)F)nc2)cnn1)[C@@H]1CCCN1S(=O)(=O)c1cc2ccccc2o1 [Example 211, (2S)-1-(benzofuran-2-ylsulfonyl)-N-[[5-[6-(trifluoromethyl)-3-pyridyl]pyridazin-3-yl]methyl]pyrrolidine-2-carboxamide] | 72
O=C(NCc1cc(-c2ccc(C(F)(F)F)cn2)cnn1)[C@@H]1CCCN1S(=O)(=O)c1cc2ccccc2o1 [Example 212, (2S)-1-(benzofuran-2-ylsulfonyl)-N-[[5-[5-(trifluoromethyl)-2-pyridyl]pyridazin-3-yl]methyl]pyrrolidine-2-carboxamide] | 27
O=C(NCc1ccc(O)c(-c2ncc(C(F)(F)F)cn2)c1)[C@@H]1CCCN1S(=O)(=O)c1cc2ccccc2o1 [Example 213, (2S)-1-(benzofuran-2-ylsulfonyl)-N-[[4-hydroxy-3-[5-(trifluoromethyl)-pyrimidin-2-yl]phenyl]-methyl]pyrrolidine-2-carboxamide] | 47
O=C(NC1(c2ccnc(-c3ccc(C(F)(F)F)cc3)c2)CC1)[C@@H]1CCCN1S(=O)(=O)c1cc2ccccc2o1 [Example 217, (2S)-1-(benzofuran-2-ylsulfonyl)-N-[1-[2-[4-(trifluoromethyl)phenyl]-4-pyridyl]cyclopropyl]-pyrrolidine-2-carboxamide] | 64
O=C(NC1(c2ccnc(-c3ccc(C(F)(F)F)nc3)c2)CC1)[C@@H]1CCCN1S(=O)(=O)c1cc2ccccc2o1 [Example 218, (2S)-1-(benzofuran-2-ylsulfonyl)-N-[1-[2-[6-(trifluoromethyl)-3-pyridyl]-4-pyridyl]cyclopropyl]-pyrrolidine-2-carboxamide] | 96
O=C(NCc1ccnc(-c2ccc(C(F)(F)F)cc2)c1)[C@@H]1CCCN1S(=O)(=O)c1cc2cccc(F)c2o1 [Example 219, (2S)-1-(7-fluorobenzofuran-2-yl)sulfonyl-N-[[2-[4-(trifluoromethyl)phenyl]-4-pyridyl]methyl]pyrrolidine-2-carboxamide] | 390
O=C(NCc1ccnc(-c2ccc(C(F)(F)F)cc2)c1)[C@@H]1CCCN1S(=O)(=O)c1cc2ccc(F)cc2o1 [Example 220, (2S)-1-(6-fluorobenzofuran-2-yl)sulfonyl-N-[[2-[4-(trifluoromethyl)phenyl]-4-pyridyl]methyl]pyrrolidine-2-carboxamide] | 54

The next compounds have a lower IC50 than those just listed; values first:

IC50 [nM] | SMILES
19 | O=C(NCc1cc(-c2ccc(C(F)(F)F)cc2)cnn1)[C@@H]1CCCN1S(=O)(=O)c1cc2ccccc2o1 [Example 210, (2S)-1-(benzofuran-2-ylsulfonyl)-N-[[5-[4-(trifluoromethyl)phenyl]-pyridazin-3-yl]methyl]pyrrolidine-2-carboxamide]
13 | O=C(NCc1ccc(O)c(-c2cnc(C(F)(F)F)cn2)c1)[C@@H]1CCCN1S(=O)(=O)c1cc2ccccc2o1 [Example 214, (2S)-1-(benzofuran-2-ylsulfonyl)-N-[[4-hydroxy-3-[5-(trifluoromethyl)-pyrazin-2-yl]phenyl]-methyl]pyrrolidine-2-carboxamide]
13 | O=C(NC1(c2cc(Cl)cc(-c3ccc(C(F)(F)F)nc3)c2)CC1)[C@@H]1CCCN1S(=O)(=O)c1cc2ccccc2o1 [Example 216, (2S)-1-(benzofuran-2-ylsulfonyl)-N-[1-[3-chloro-5-[6-(trifluoromethyl)-3-pyridyl]phenyl]cyclopropyl]-pyrrolidine-2-carboxamide]
2.1 | O=C(NCc1cc(-c2ccc(C(F)(F)F)cn2)c(O)cn1)[C@@H]1CCCN1S(=O)(=O)c1cc2ccccc2o1 [Example 215, (2S)-1-(benzofuran-2-ylsulfonyl)-N-[[5-hydroxy-4-[5-(trifluoromethyl)-2-pyridyl]-2-pyridyl]methyl]pyrrolidine-2-carboxamide]
